Test results as given in patent US20230035892A1, “METHODS AND COMPOSITIONS FOR TREATING CANCER” (Flagship Pioneering Innovations V, Inc., priority 2019, published 2023).

How the values were obtained:
Format in all cases: cell-based
[1] = tested on: sgGrk2-expressing PAXF1657 cells; assay: Colony formation assay in sgGrk2-expressing cells (target specificity)
Procedure: (§1) To assess the target specificity of the GRK2 small molecule antagonist of Formula III-26, sgGRK2-expressing cells were treated with the compound of Formula III-26. If GRK2 knockout is complete and the compound of Formula III-26 inhibits only GRK2, the addition of the compound of Formula III-26 should not induce any additional growth defect compared to sgRNA KO alone. […] This is potentially due to the lower GRK2 knockout efficiency that can be achieved in PAXF1657 compared to Miapaca2, as shown in Table 16.

[2] = tested on: sgGrk2-expressing Miapaca2 cells; assay: as above; settings: Miapaca
Procedure: as §1

[3] = tested on: PAXF1657 control empty vector; assay: 7-day CellTiter-Glo anti-proliferative assay; settings: PAXF1657, sgNTC, pReceiver-empty vector, 5 or 10 point dose curve
Procedure: Cell lines were seeded into tissue culture treated, white-walled, 96-well plates at a density of 500 cells/well in RPM11640 media supplemented with 10% H.I. FBS and penicillin/streptomycin. Plates were incubated overnight at 37° C., 5% CO2 to allow cells to adhere to the wells. GRK2 small molecule antagonists were added to the cells using a ten-point or five-point dilution series with a final concentration ranging from […] in 0.1% DMSO. At the time of compound addition, a set of plates that were not treated with compounds were collected and cell viability was measured using CellTiter-Glo (Promega). CellTiter-Glo reagent was added to the plates and luminescence was measured using a Biotek Synergy plate reader. The compound treated cells were incubated for 3 days at 37° C., 5% CO2. The media was then aspirated from each well and replaced with fresh media containing GRK2 small molecule antagonists. The compound treated cells were then incubated for another 4 days at 37° C., 5% CO2 and cell viability was assessed at the end of the 7-day compound treatment by CellTiterGlo.

[4] = PAXF1657, 1 μM, sgGRK2-2 (SEQ ID NO: 3)
[5] = PAXF1657, 1 μM, sgGRK2-3 (SEQ ID NO: 4)
[6] = PAXF1657, 3 μM, sgGRK2-2 (SEQ ID NO: 3)
[7] = PAXF1657, 3 μM, sgGRK2-3 (SEQ ID NO: 4)

Cn1c(CNc2cccc(C(=O)NCc3ccccc3C(F)(F)F)c2)nnc1-c1ccncc1 [Compound of Formula III-26]
Difference between rel +dox and −dox signal [1, 4]: 0.45
Rel +dox [1, 4]: 0.44
Rel −dox [1, 4]: 0.89
Difference between rel +dox and −dox signal [1, 5]: 0.37
Rel +dox [1, 5]: 0.40
Rel −dox [1, 5]: 0.78
Difference between rel +dox and −dox signal ([1]; PAXF1657, 1 μM, sgGRK2-pooled): 0.29
Rel +dox ([1]; PAXF1657, 1 μM, sgGRK2-pooled): 0.49
Rel −dox ([1]; PAXF1657, 1 μM, sgGRK2-pooled): 0.78
Difference between rel +dox and −dox signal ([1]; PAXF1657, 1 μM, sgNTC): −0.04
Rel +dox ([1]; PAXF1657, 1 μM, sgNTC): 0.78
Rel −dox ([1]; PAXF1657, 1 μM, sgNTC): 0.73
Difference between rel +dox and −dox signal [1, 6]: 0.26
Rel +dox [1, 6]: 0.41
Rel −dox [1, 6]: 0.67
Difference between rel +dox and −dox signal [1, 7]: 0.32
Rel +dox [1, 7]: 0.22
Rel −dox [1, 7]: 0.55
Difference between rel +dox and −dox signal ([1]; PAXF1657, 3 μM, sgGRK2-pooled): 0.11
Rel +dox ([1]; PAXF1657, 3 μM, sgGRK2-pooled): 0.48
Rel −dox ([1]; PAXF1657, 3 μM, sgGRK2-pooled): 0.59
Difference between rel +dox and −dox signal ([1]; PAXF1657, 3 μM, sgNTC): 0.01
Rel +dox ([1]; PAXF1657, 3 μM, sgNTC): 0.56
Rel −dox ([1]; PAXF1657, 3 μM, sgNTC): 0.57
Difference between rel +dox and −dox signal ([2]; 1 μM, sgGRK2-pooled): 0.00
Rel +dox ([2]; 1 μM, sgGRK2-pooled): 0.76
Rel −dox ([2]; 1 μM, sgGRK2-pooled): 0.75
Difference between rel +dox and −dox signal ([2]; 1 μM, sgNTC): 0.05
Rel +dox ([2]; 1 μM, sgNTC): 0.77
Rel −dox ([2]; 1 μM, sgNTC): 0.81
Difference between rel +dox and −dox signal ([2]; 3 μM, sgGRK2-pooled): 0.04
Rel +dox ([2]; 3 μM, sgGRK2-pooled): 0.43
Rel −dox ([2]; 3 μM, sgGRK2-pooled): 0.47
Difference between rel +dox and −dox signal ([2]; 3 μM, sgNTC): 0.12
Rel +dox ([2]; 3 μM, sgNTC): 0.53
Rel −dox ([2]; 3 μM, sgNTC): 0.65
Emax ([3]; 168 h, read-out: Maximum % Growth inhibition relative to DMSO, geometric mean): 61%
GI50 ([3]; read-out: GI50, geometric mean): 9.49 µM
